In patent EP4592291A1, “USE OF PEMETREXED NEAR-INFRARED FLUORESCENT MOLECULE TARGETING ALPHA-TYPE FOLATE RECEPTOR AS FLUORESCENT TRACER” (Nanjing Nuoyuan Medical Devices Co., Ltd, priority 2022, dated 2024):

Experiments:
[1] = tested on: inflammatory tissue slice with high folate receptor β expression; test: Fluorescence of inflammatory tissue slices, H1299 tumor plus peritonitis mouse model; assay type: in vivo; details: H1299 tumor-bearing mouse with peritonitis, FIG. 7
Source text: (§1) The establishment of the inflammation model was verified by utilizing immunohistochemistry slices. […] By utilizing different specificities to different folate receptor subtypes, the tumors are effectively differentiated from the inflammatory tissues.

[2] = tested on: H1299 tumor-bearing mice with high folate receptor α expression; test: In vivo near-infrared imaging of tumor-bearing mice, high folate receptor α expression; details: tail vein injection, dose of 10 nm, after 2 h
Method: (§2) (2) The pemetrexed near-infrared fluorescent molecule was used for specifically recognizing non-small lung cancer tissues with high folate receptor α expression: the pemetrexed near-infrared fluorescent tracer was administrated to H1299 and A549 tumor-bearing mice via tail vein injection at a dose of 10 nm. After 2 h, imaging effects were observed through an animal imaging instrument and tissue biological distribution of mice was analyzed.

[3] = tested on: cell line RAW264.7 with high folate receptor β expression; test: Confocal cell imaging of tracer uptake, cell line with high folate receptor β expression; assay type: cell-based; details: RAW264.7, 100 nM tracer, incubated 1 h
Method: (§3) 4. In order to verify the effect of the present disclosure, the following verification experiment was conducted: • (1) Use of a pemetrexed near-infrared fluorescent molecule in the aspect of differentiating a tumor with high folate receptor α expression from inflammation, that is, specific recognition of the pemetrexed near-infrared fluorescent molecule on a cell line with high folate receptor α expression: a cell line H1299 with high folate receptor α expression, a cell line A549 with low folate receptor α expression and a cell line RAW264.7 with high folate receptor β expression were selected. The cells were cultured in a Roswell Park Memorial Institute (RPPMI) culture medium containing 10% fetal bovine serum (FBS) and 1% […] in moist air containing 5% CO2 and 95% air at 37°C. The cells were incubated for 1 h in a confocal vessel by utilizing a 100 nM pemetrexed near-infrared fluorescent tracer. The cells after incubation were washed with PBS, stained with DPAI, fixed with paraformaldehyde and then photographed.

[4] = tested on: non-small cell lung cancer slice with high folate receptor α expression; test: Fluorescence of tumor slices, H1299 tumor plus peritonitis mouse model; assay type: in vivo; details: H1299 tumor-bearing mouse with peritonitis, FIG. 6
Source text: as §1

[5] = tested on: cell line H1299 with high folate receptor α expression; test: Confocal cell imaging of tracer uptake, cell line with high folate receptor α expression; assay type: cell-based; details: 100 nM tracer, incubated 1 h
Method: as §3

[6] = tested on: A549 tumor-bearing mice with low folate receptor α expression; test: In vivo near-infrared imaging of tumor-bearing mice, low folate receptor α expression; details: tail vein injection, dose of 10 nm, after 2 h
Method: as §2

[7] = tested on: cell line A549 with low folate receptor α expression; test: Confocal cell imaging of tracer uptake, cell line with low folate receptor α expression; assay type: cell-based; details: folate receptor α negative A549 cell, 100 nM tracer, incubated 1 h
Method: as §3

CC1(C)C(=CC=C2CCCC(C=CC3=[N+](CCCCS(=O)(=O)[O-])c4ccc(S(=O)(=O)O)cc4C3(C)C)=C2Oc2ccc(C[C@H](NC(=O)c3ccc(CCc4c[nH]c5[nH]c(N)nc(=O)c45)cc3)C(=O)O)cc2)N(CCCCS(=O)(=O)O)c2ccc(S(=O)(=O)O)cc21
fluorescence of tissue slice [1]: almost has no fluorescence
specific recognition of tumor (imaging effect) [2]: capable of specifically recognizing
tumor background-to-signal ratio [2]: good
fluorescence in the cell [3]: not detected
fluorescence intensity of tissue slice [4]: relatively high intensity
tracer fluorescence in the cell (internalization) [5]: seen in the entire cytoplasm
targeting effect (imaging) [6]: not detected
tracer fluorescence in the cell (internalization) [7]: not observed
